Measured values as given in ChEMBL document CHEMBL1150918, “Phospholipase Cgamma1 inhibitory principles from the sarcotestas of Ginkgo biloba” (J Nat Prod, 1998).
In brackets after ≈: the same amount, converted by molar mass.

Key:
[1] = test system: MCF7; assay: Growth inhibition of human MCF7 cells after 2 days by SRB assay; format: functional, cell-based; settings: MCF7, 48 h
[2] = target: T1, 1-phosphatidylinositol 4,5-bisphosphate phosphodiesterase gamma-1 (Bos taurus, UniProt P08487); assay: Inhibition of bovine brain PI-PLCgamma1
T1 sequence (P08487 whole entry): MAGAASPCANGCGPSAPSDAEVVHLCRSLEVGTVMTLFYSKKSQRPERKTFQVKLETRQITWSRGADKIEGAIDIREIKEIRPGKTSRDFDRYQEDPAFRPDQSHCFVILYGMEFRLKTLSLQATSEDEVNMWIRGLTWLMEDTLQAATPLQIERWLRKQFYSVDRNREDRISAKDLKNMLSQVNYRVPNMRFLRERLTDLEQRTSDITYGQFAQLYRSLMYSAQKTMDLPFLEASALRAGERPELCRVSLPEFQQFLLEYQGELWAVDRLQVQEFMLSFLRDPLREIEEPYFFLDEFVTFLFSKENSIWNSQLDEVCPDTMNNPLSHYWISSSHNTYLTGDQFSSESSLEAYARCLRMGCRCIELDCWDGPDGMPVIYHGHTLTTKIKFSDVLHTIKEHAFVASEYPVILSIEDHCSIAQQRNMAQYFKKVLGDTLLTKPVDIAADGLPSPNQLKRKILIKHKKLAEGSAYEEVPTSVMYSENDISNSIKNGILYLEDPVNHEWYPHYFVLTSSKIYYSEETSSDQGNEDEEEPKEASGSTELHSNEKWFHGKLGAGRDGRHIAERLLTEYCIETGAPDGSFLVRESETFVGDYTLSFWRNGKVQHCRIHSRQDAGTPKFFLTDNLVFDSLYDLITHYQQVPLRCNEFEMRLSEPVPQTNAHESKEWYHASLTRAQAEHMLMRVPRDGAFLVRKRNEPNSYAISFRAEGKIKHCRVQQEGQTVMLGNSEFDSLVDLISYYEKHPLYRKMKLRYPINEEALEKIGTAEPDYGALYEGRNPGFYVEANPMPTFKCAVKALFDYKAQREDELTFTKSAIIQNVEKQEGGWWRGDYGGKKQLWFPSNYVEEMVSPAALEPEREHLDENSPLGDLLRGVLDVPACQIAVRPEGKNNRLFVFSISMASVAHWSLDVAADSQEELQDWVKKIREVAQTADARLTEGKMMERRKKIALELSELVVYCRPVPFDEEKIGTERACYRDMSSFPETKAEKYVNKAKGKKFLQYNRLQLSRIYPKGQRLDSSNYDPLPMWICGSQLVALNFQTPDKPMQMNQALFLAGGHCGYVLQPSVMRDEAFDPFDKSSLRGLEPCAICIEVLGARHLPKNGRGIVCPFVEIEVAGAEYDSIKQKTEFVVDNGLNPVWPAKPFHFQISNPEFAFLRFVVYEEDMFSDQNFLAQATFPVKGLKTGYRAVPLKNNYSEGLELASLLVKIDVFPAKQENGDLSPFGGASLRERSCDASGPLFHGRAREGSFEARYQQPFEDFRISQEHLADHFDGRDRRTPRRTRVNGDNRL

[3] = test system: HT1197; assay: Growth inhibition of human HT1197 cells after 2 days by SRB assay; format: functional, cell-based; settings: HT1197, 48 h
[4] = test system: HCT-15; assay: Growth inhibition of human HCT15 cells after 2 days by SRB assay; format: functional, cell-based; settings: HCT-15, 48 h
[5] = test system: SK-OV-3; assay: Growth inhibition of human SKOV3 cells after 2 days by SRB assay; format: functional, cell-based; settings: SK-OV-3, 48 h
[6] = test system: A549; assay: Growth inhibition of human A549 cells after 2 days by SRB assay; format: functional, cell-based; settings: A549, 48 h
[7] = Growth inhibition of human CCD-18Co cells after 2 days by SRB assay; format: cell-based; settings: 48 h
[8] = target: T2, 1-phosphatidylinositol 4,5-bisphosphate phosphodiesterase gamma-1 (Rattus norvegicus, UniProt P10686); assay: Inhibition of rat brain PI-PLCgamma1
T2 sequence (P10686 whole entry): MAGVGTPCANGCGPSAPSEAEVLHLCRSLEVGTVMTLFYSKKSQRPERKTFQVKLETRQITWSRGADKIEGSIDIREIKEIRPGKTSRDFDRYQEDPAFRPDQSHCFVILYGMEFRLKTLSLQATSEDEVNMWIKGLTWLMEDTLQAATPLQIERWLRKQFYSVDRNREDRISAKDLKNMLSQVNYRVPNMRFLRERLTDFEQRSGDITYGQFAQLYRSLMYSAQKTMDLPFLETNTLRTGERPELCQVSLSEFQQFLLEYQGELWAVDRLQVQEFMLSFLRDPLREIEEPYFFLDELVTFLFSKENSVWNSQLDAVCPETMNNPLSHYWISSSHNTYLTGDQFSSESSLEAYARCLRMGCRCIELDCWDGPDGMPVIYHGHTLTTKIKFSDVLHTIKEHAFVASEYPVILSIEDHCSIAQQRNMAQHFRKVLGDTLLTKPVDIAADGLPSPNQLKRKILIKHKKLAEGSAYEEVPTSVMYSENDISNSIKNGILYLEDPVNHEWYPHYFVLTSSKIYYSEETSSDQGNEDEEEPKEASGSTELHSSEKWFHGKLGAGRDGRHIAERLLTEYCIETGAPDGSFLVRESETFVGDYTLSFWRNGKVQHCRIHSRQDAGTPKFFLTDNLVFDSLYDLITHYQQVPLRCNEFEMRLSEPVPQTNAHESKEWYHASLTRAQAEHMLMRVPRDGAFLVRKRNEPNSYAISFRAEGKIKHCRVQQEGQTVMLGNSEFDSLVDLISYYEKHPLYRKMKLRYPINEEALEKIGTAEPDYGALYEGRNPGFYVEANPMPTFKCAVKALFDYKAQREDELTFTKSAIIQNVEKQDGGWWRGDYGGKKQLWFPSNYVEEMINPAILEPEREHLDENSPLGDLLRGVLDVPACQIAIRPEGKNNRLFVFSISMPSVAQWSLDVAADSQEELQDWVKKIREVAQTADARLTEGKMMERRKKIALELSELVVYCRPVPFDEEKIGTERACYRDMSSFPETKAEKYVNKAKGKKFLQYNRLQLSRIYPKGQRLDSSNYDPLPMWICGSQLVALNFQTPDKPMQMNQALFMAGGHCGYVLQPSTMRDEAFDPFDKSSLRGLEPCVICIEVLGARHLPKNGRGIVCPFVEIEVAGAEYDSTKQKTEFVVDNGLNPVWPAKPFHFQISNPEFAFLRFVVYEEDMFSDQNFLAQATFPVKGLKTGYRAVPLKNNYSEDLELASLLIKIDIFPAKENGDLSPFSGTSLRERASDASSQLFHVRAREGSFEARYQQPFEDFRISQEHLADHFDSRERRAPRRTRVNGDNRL

[9] = Inhibition of pig brain PI-PLCgamma1; set-up: species or system Sus scrofa

## CCCCCC/C=C\CCCCCCCc1cccc(O)c1C(=O)O [GINGKOLIC ACID]
[1]
  IC50: 6.44 µg/mL (≈ 18.6 µM)
[2]
  IC50: 5.66 µM
[3]
  IC50: 46.3 µg/mL (≈ 134 µM)
[4]
  IC50: 12.7 µg/mL (≈ 36.7 µM)
[5]
  IC50: > 50 µg/mL
[6]
  IC50: 31.3 µg/mL (≈ 90.3 µM)
[7]
  IC50: 97.1 µg/mL (≈ 280 µM)

## C[C@@H]1CC[C@H]2[C@]13CC[C@@]1(C)O[C@]2(C)[C@@H](NCCCCN(C)CCCN(C)C)[C@H]1C3 [HISPIDOSPERMIDIN]
[8]
  IC50: 16 µM

## Cc1cccc(O)c1 [METACRESOL]
[2]
  IC50: > 2310 µM

## CCCCCC/C=C\CCCCCCCCCc1cccc(O)c1C(=O)O [GINKGOLIC ACID 17:1]
[1]
  IC50: 5.06 µg/mL (≈ 13.5 µM)
[2]
  IC50: 2.22 µM
[3]
  IC50: 28.1 µg/mL (≈ 75.1 µM)
[4]
  IC50: 8.39 µg/mL (≈ 22.4 µM)
[5]
  IC50: > 50 µg/mL
[6]
  IC50: 29.2 µg/mL (≈ 78 µM)

## CCCCCC/C=C\CCCCCCCc1cccc(OC(C)=O)c1
[2]
  IC50: > 726 µM

## CCCCCCCCCCCCCc1cccc(O)c1
[1]
  IC50: 7.04 µg/mL (≈ 25.5 µM)
[2]
  IC50: 57.8 µM
[3]
  IC50: 14.6 µg/mL (≈ 52.7 µM)
[4]
  IC50: 29.7 µg/mL (≈ 107 µM)
[5]
  IC50: > 50 µg/mL
[6]
  IC50: 25.9 µg/mL (≈ 93.7 µM)
[7]
  IC50: 73.2 µg/mL (≈ 265 µM)

## CCCCCCCCCCCCCc1cccc(O)c1C(=O)O [GINKGOLIC ACID 13:0]
[1]
  IC50: 22.7 µg/mL (≈ 70.7 µM)
[2]
  IC50: 16.3 µM
[3]
  IC50: 44.6 µg/mL (≈ 139 µM)
[4]
  IC50: > 50 µg/mL
[5]
  IC50: 20.4 µg/mL (≈ 63.7 µM)
[6]
  IC50: > 50 µg/mL
[7]
  IC50: 59.1 µg/mL (≈ 184 µM)

## CC(=O)c1cc2c(=O)c3c(C(=O)O)c(O)c(O)cc3oc2c(C(C)=O)c1-c1coc2cc(O)c(O)c(C(=O)O)c2c1=O [VINAXANTHONE]
[8]
  IC50: 5.4 µM

## O=c1cc(-c2ccc(O)c(-c3c(O)cc(O)c4c(=O)cc(-c5ccc(O)cc5)oc34)c2)oc2cc(O)cc(O)c12 [AMENTOFLAVONE]
[2]
  IC50: 29 µM

## CCCCCC/C=C\CCCCCCCc1cccc(OC(C)=O)c1C(=O)OC
[2]
  IC50: > 621 µM

## CCCCCC/C=C\CCCCCCCCCc1cccc(O)c1
[1]
  IC50: 7.19 µg/mL (≈ 21.8 µM)
[2]
  IC50: 9.73 µM
[3]
  IC50: 20.8 µg/mL (≈ 63 µM)
[4]
  IC50: 32.9 µg/mL (≈ 99.5 µM)
[6]
  IC50: 11.8 µg/mL (≈ 35.7 µM)
[7]
  IC50: 66.4 µg/mL (≈ 201 µM)

## CCCCCCCCCCCCCc1cc(O)cc(O)c1
[1]
  IC50: 1.91 µg/mL (≈ 6.53 µM)
[2]
  IC50: 72.3 µM
[3]
  IC50: 2.2 µg/mL (≈ 7.52 µM)
[4]
  IC50: 15.3 µg/mL (≈ 52.4 µM)
[5]
  IC50: > 50 µg/mL
[6]
  IC50: > 50 µg/mL
[7]
  IC50: > 100 µg/mL

## O=C(O)c1ccccc1O [SALICYLIC ACID]
[2]
  IC50: 873 µM

## CCCCCCCCCCCCCCCc1cccc(O)c1
[1]
  IC50: 8.71 µg/mL (≈ 28.6 µM)
[2]
  IC50: 58 µM
[3]
  IC50: 41.8 µg/mL (≈ 137 µM)
[4]
  IC50: 31.9 µg/mL (≈ 105 µM)
[6]
  IC50: 11.9 µg/mL (≈ 39.1 µM)

## Cc1cc(O)cc(O)c1 [ORCINOL]
[2]
  IC50: > 2010 µM

## CCCCCC/C=C\CCCCCCCc1cccc(O)c1C(=O)OC
[2]
  IC50: > 693 µM

## CCCCCC/C=C\CCCCCCCc1cc(OC(C)=O)cc(OC(C)=O)c1
[2]
  IC50: > 621 µM

## CC(=O)O[C@@H]1[C@H](O[C@H](CO)[C@H](O)[C@@H](O)[C@@H](OC(C)=O)C(=O)O[C@H](C)CCCCCCCCCCCCCCCc2cccc(O)c2C(=O)O)O[C@H](CO)[C@@H](O)[C@@H]1O [CALOPOROSIDE]
[9]
  IC50: 18 µM

## CCCCCC/C=C\CCCCCCCCCc1cc(O)cc(O)c1
[2]
  IC50: 30.6 µM
